The results in this text go back to ChEMBL document CHEMBL1201862, “PubChem BioAssay data set” (2004).

Each structure is given as a SMILES string.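 Method: 48-hour compound exposure of cells in 96-well plates, five concentrations, linear interpolation of endpoints. Here, GI50 denotes the concentration required for 50% inhibition of growth.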 Calls of active or inactive are those of the source. Cut-off read from the data, not from the text of the source: active = GI50 up to about 1.1 µM and inactive = higher.

Assay in all cases: DTP human tumour cell line panel, 48 h
Experiment [1] concerns 786-0.
Experiment [2] relates to COLO 205.
Experiment [3] concerns DLD-1.
For experiment [4], the system named is DU-145.
For experiment [5], the system named is HCT-116.
For experiment [6], the system named is HOP-62.
For experiment [7], the system named is Hs-578T.
Experiment [8] deals with IGROV-1.
Experiment [9] concerns KM12.
Experiment [10] has as its system M19-MEL.
Experiment [11] has as its system MDA-MB-435.
Experiment [12] deals with MDA-N.
In experiment [13] the test system is NCI/ADR-RES.
In experiment [14] the test system is OVCAR-3.
The test system of experiment [15] is OVCAR-5.
Experiment [16] relates to RPMI-8226.
Experiment [17] has as its system RXF 393.
In experiment [18] the test system is SF-539.
Experiment [19] has as its system SNB-19.
Experiment [20] relates to UO-31.

For `C=C1C(=O)C23CC1CCC2C12CO[C@@]3(O)[C@@H](O)C1C(C)(C)C=CC2=O` (stereo not given in full), the concentration for 50% growth inhibition (GI50) (usually the concentration that inhibits growth by half) in experiment [1] is 0.653 µM (active); in [2], 0.714 µM (active); in experiment [3], 0.721 µM (active); in experiment [4], 23.4 µM (inactive); in [5], 0.488 µM (active); in [6], 7.41 µM (inactive). Besides, the GI50 in experiment [7] is 31.6 µM (inactive); in [8] it was 3.94 µM (inactive); in [9], 14.6 µM (inactive); in experiment [10], 0.824 µM (active); in [11], 3.78 µM (inactive); in [12] it was 2.98 µM (inactive). Besides, the GI50 in experiment [13] is 9.31 µM (inactive); in [14] it was 1.11 µM (active); in experiment [15], 4.76 µM (inactive); in [16], 0.75 µM (active); in [17], 0.728 µM (active); in experiment [18], 0.861 µM (active). Moreover, the GI50 in experiment [19] was 1.41 µM (inactive); in experiment [20] it was 1.73 µM (inactive).
